From US20240391954A1, “MC4R AGONIST PEPTIDES” (The Regents of the University of Michigan, priority 2021, published 2024)
Read-outs that look alike come from different tables or passages of the source. Positions of bridges follow the written chain, without caps; N, C: chain ends. Non-standard residues stand in square brackets, D forms with d. Residues, ends and D or L forms follow the SMILES beside them. dPhe(4-Br) = N[C@H](Cc1ccc(Br)cc1)C(=O)O; dPhe(4-F) = N[C@H](Cc1ccc(F)cc1)C(=O)O; d1Nal = N[C@H](Cc1cccc2ccccc12)C(=O)O; Nle = CCCC[C@H](N)C(=O)O; dAbu = CC[C@@H](N)C(=O)O; Aib = CC(C)(N)C(=O)O

What was measured:
human MC4R = biological target: T1, human MC4R (Homo sapiens, UniProt P32245); experiment: split-luciferase cAMP sensor assay, agonist mode (measurement window 1), hMC4R; type: cell-based; conditions: for Emax / EC50: agonist mode; for Emax: read-out: MC4R cAMP % max activation; for EC50: read-out: MC4R cAMP EC50
T1 construct: host or cells: HEK-293 cells stably expressing the GScAMP22F split-luciferase cAMP sensor and hMC4R, G418 selection
How it was run: (§1)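 EC50 values come from a four-parameter variable-slope fit of luminescence in measurement window 1, capturing direct peptide effects on receptor-expressing cells with a cAMP22f luciferase sensor. Cells were preloaded with 4% D-luciferin, serum-free medium; 20 μM forskolin normalized for cell number and transducer efficiency.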

human MC3R = biological target: T2, human MC3R (Homo sapiens, UniProt P41968); experiment: split-luciferase cAMP sensor assay, agonist mode (measurement window 1), hMC3R; type: cell-based; conditions: for Emax / EC50: agonist mode; for Emax: read-out: MC3R cAMP % max activation; for MC4R selectivity vs MC3R: MC4R versus MC3R; for EC50: HEK-293 cells stably expressing hMC3R, read-out: MC3R cAMP EC50
T2 construct: expressed in transfected cells; host or cells: HEK-293 cells stably expressing the GScAMP22F split-luciferase cAMP sensor (parent reporter line from Promega); MC3R clone generated in-house, G418 selection
How it was run: as §1

[1] = Plasma protein binding (Centrifree ultrafiltration); type: in vitro ADME
Protocol: Solutions of test compound in DMSO were prepared at 1 mM, 100 uM and 10 uM, 5 ul of each solution of test compound was added to 495 uL plasma, and incubated at 25° C. for 5 min. Sample was added to a Centrifree® device, then centrifuged at 2000× g for 20 min to obtain desired filtrate volume. Initial plasma samples and ultrafiltrates were subjected to LC-MS/MS. % Free peptide=(concentration of ultrafiltrates/concentration of plasma)×100%. % Bound=100%−% Free

Mouse plasma stability = type: in vitro ADME; conditions: 37° C.; for half-life at 1 µM: pooled mouse plasma
Protocol: FIG. 3. Results of plasma stability testing for control peptides. Compounds shown were incubated in mouse plasma at 37° C. at 1 μM concentrations. 40 ul aliquots were removed at the times indicated and the reactions stopped with the addition of 160 μL cold acetonitrile containing 200 ng/ml of peptide internal standard (IS). The incubation solution was centrifuged at 3500 rpm for 10 minutes to precipitate protein. LC/MS/MS analysis was used to determine the % peptide remaining.
Pooled mouse plasma was prepared and stored at −80° C, prior to use, 396 μL mouse plasma was incubated at 37° C. for 5 minutes in 1.5 mL microcentrifuge tubes. 4 μL of 100 μM test or control compound/peptide was added to each tube and incubated for 0.5, 15, 30, 60, 120, or 240 minutes. An aliquot of 40 μL of each reaction was stopped by the addition of 4 volume of cold acetonitrile containing 200 ng/mL of […] solution was centrifuged at 3500 rpm for 10 minutes to precipitate protein. The supernatant was used for LC/MS/MS analysis. The natural log peak area ratio (compound peak area/internal standard peak area) was plotted against time and the gradient of the line determined.

human MC1R = biological target: T3, human MC1R (Homo sapiens, UniProt Q01726); experiment: split-luciferase cAMP sensor assay, agonist mode, hMC1R; type: cell-based; conditions: MC4R versus MC1R
T3 construct: expressed in transfected cells; host or cells: HEK-293 cells stably expressing hMC1R and the GScAMP22F cAMP sensor
How it was run: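 HEK-293 cells stably expressing hMC1R and the GScAMP22F split-luciferase cAMP sensor, preloaded 120 min at 37° C with D-luciferin in serum-free medium. Peptide responses were taken as peak luminescence over 2-13 min minus 2-min baseline, normalized to the α-MSH ECmax. EC50 was obtained from a four-parameter variable-slope fit.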

[2] = HEK-293 cells stably expressing hMC4R
[3] = 1.0 uM, read-out: Protein Binding 1.0 uM (converted)
[4] = 10.0 uM, read-out: Protein Binding 10.0 uM (converted)

T1 sequence (P32245 whole entry): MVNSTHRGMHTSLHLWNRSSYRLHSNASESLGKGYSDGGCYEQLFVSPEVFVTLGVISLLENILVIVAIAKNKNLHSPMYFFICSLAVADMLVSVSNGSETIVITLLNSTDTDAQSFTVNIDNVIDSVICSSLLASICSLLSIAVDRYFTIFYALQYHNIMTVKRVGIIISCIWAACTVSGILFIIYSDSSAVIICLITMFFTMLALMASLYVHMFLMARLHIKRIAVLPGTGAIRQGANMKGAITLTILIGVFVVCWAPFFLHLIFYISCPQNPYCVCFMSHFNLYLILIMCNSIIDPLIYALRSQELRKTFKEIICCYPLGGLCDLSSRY
T2 sequence (P41968 whole entry): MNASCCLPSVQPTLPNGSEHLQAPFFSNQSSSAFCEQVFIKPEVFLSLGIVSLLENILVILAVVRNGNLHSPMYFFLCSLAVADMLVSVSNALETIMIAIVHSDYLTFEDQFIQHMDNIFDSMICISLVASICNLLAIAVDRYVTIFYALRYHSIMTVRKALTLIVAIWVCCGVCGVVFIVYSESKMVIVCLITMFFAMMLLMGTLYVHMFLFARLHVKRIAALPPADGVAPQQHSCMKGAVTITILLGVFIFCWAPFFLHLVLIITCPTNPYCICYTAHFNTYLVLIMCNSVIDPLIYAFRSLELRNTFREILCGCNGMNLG
T3 sequence (Q01726 whole entry): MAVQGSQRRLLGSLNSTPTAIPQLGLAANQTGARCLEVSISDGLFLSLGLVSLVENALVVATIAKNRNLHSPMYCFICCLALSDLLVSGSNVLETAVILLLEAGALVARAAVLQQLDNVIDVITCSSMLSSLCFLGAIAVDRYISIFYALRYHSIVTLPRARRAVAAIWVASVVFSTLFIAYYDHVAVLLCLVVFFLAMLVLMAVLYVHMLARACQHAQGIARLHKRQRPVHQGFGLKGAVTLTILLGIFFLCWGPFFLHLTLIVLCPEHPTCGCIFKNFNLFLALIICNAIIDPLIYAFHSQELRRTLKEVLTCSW

Compound	MC4R selectivity vs MC1R (human MC4R)	MC4R selectivity vs MC3R (human MC4R)	Emax (human MC4R; hMC4R stable cell line) [%]	EC50 (human MC4R; hMC4R stable cell line) [nM]	Emax (human MC3R; hMC3R stable cell line) [%]	fraction unbound at 5 min, 0.1 µM [1]	fraction unbound at 5 min, 1 µM ([1]; 1.0 uM)	fraction unbound at 5 min, 10 µM ([1]; 10.0 uM)	half-life at 1 µM (Mouse plasma stability) [h]	Emax (human MC4R; % maximal activation) [%]	EC50 (human MC4R; [2]) [nM]	Emax (human MC3R; % maximal activation) [%]	MC4R selectivity vs MC3R (human MC3R)	MC4R selectivity vs MC1R (human MC1R)	EC50 (human MC3R) [nM]	fraction unbound at 0.1 uM [1]	fraction unbound [1, 3]	fraction unbound [1, 4]	half-life (Mouse plasma stability) [h]
CC[C@H]1NC(=O)[C@@H](NC(=O)[C@H](CCCNC(=N)N)NC(C)=O)CSSC[C@@H](C(N)=O)NC(=O)[C@@H](Cc2c[nH]c3ccccc23)NC(=O)[C@H](CCCNC(=N)N)NC(=O)[C@@H](Cc2ccc(Br)cc2)NC(=O)[C@H](CCCNC(=N)N)NC1=O [CTX-1247, Arg-cyclo(Cys-D-Abu-Arg-D-Phe(4-Br)-Arg-D-Trp-Cys)] (Ac-RC[dAbu]R[dPhe(4-Br)]R[dW]C-NH2; disulfide 2-8 (inferred))	0.43	2.05	75	3.3	13	0.51	0.47	0.47	3.32	–	–	–	–	–	–	–	–	–	–
CC(=O)N[C@@H](CCCNC(=N)N)C(=O)N[C@H]1CSSC[C@@H](C(N)=O)NC(=O)[C@H](Cc2ccccc2)NC(=O)[C@H](CCCNC(=N)N)NC(=O)[C@@H](Cc2ccc(Br)cc2)NC(=O)[C@H](CCCNC(=N)N)NC(=O)[C@@H](C)NC1=O [CTX-1258, Arg-cyclo(Cys-D-Ala-Arg-D-Phe(4-Br)-Arg-Phe-Cys)] (Ac-RC[dA]R[dPhe(4-Br)]RFC-NH2; disulfide 2-8)	0.53	3.04	92	2.4	36	0.53	0.5	0.5	> 4	–	–	–	–	–	–	–	–	–	–
CC(=O)N[C@@H](CCCNC(=N)N)C(=O)N[C@H]1CSSC[C@@H](C(N)=O)NC(=O)[C@H](Cc2c[nH]c3ccccc23)NC(=O)[C@H](CCCNC(=N)N)NC(=O)[C@@H](Cc2ccccc2)NC(=O)[C@H](CCCNC(N)=O)NC(=O)[C@@H](C)NC1=O [CTX-1285, Arg-cyclo(Cys-D-Ala-Cit-D-Phe-Arg-Trp-Cys)]	–	–	–	–	–	0.55	0.61	0.59	> 4	94	1.7	28	2.9	134	–	–	–	–	–
CC(=O)N[C@@H](CCCNC(=N)N)C(=O)N[C@H]1CSSC[C@@H](C(N)=O)NC(=O)[C@H](Cc2c[nH]c3ccccc23)NC(=O)[C@H](CCCNC(=N)N)NC(=O)[C@@H](Cc2ccccc2)NC(=O)[C@H](CCCNC(=N)N)NC(=O)[C@@H](C)NC1=O [CTX-1211, Arg-cyclo(Cys-D-Ala-Arg-D-Phe-Arg-Trp-Cys)] (Ac-RC[dA]R[dF]RWC-NH2; disulfide 2-8 (inferred))	–	–	–	–	–	0.49	0.37	0.39	> 3	96	–	91	5.49	3.12	–	–	–	–	–
CCCC[C@H](NC(=O)[C@H](CCCNC(=N)N)NC(C)=O)C(=O)N[C@H]1CSSC[C@@H](C(N)=O)NC(=O)[C@H](Cc2c[nH]c3ccccc23)NC(=O)[C@H](CCCNC(=N)N)NC(=O)[C@@H](Cc2ccccc2)NC(=O)[C@H](CCCNC(=N)N)NC1=O [CTX-1228, Arg-Nle-cyclo(Cys-Arg-D-Phe-Arg-Trp-Cys)] (Ac-R[Nle]CR[dF]RWC-NH2; disulfide 3-8 (inferred))	–	–	–	–	–	0.63	0.61	0.61	0.917	102	–	93	8.38	3.16	1.6	–	–	–	–
CC(=O)N[C@@H](CCCNC(=N)N)C(=O)N[C@H]1CSSC[C@@H](C(N)=O)NC(=O)[C@@H](Cc2c[nH]c3ccccc23)NC(=O)[C@H](CCCNC(=N)N)NC(=O)[C@@H](Cc2ccc(F)cc2)NC(=O)[C@H](CCCNC(=N)N)NC(=O)[C@@H](C)NC1=O [CTX-1236, Arg-cyclo(Cys-D-Ala-Arg-D-Phe(4-F)-Arg-D-Trp-Cys)] (Ac-RC[dA]R[dPhe(4-F)]R[dW]C-NH2; disulfide 2-8)	2.01	1.36	97	1.9	66	–	–	–	–	–	–	–	–	–	–	0.55	0.51	0.49	3.78
CC(=O)N[C@@H](CCCNC(=N)N)C(=O)N[C@H]1CSSC[C@@H](C(N)=O)NC(=O)[C@@H](Cc2c[nH]c3ccccc23)NC(=O)[C@H](CCCNC(=N)N)NC(=O)[C@@H](Cc2ccccc2)NC(=O)[C@H](CCCNC(=N)N)NC(=O)[C@H](C)NC1=O [CTX-1268, Arg-cyclo(Cys-Ala-Arg-D-Phe-Arg-D-Trp-Cys)] (Ac-RCAR[dF]R[dW]C-NH2; disulfide 2-8)	–	–	–	–	–	–	–	–	–	96	–	44	30	6.59	–	0.48	0.42	0.38	1.75
CC1(C)NC(=O)CSC[C@@H](C(N)=O)NC(=O)[C@H](Cc2c[nH]c3ccccc23)NC(=O)[C@H](CCCNC(=N)N)NC(=O)[C@@H](Cc2ccccc2)NC(=O)[C@H](Cc2c[nH]cn2)NC1=O [CTX-1647, Thioether-cyclo(Aib-His-D-Phe-Arg-Trp-Cys)]	–	–	–	–	–	–	–	–	–	109	–	102	30	3.66	–	–	–	–	–
CCCC[C@H](NC(=O)[C@H](CCCNC(=N)N)NC(C)=O)C(=O)N[C@H]1CSSC[C@@H](C(N)=O)NC(=O)[C@H](Cc2c[nH]c3ccccc23)NC(=O)[C@H](CCCNC(=N)N)NC(=O)[C@@H](Cc2cccc3ccccc23)NC(=O)[C@H](CCCNC(=N)N)NC1=O [CTX-1611, Arg-Nle-cyclo(Cys-Arg-D-Nal(1′)-Arg-Trp-Cys)] (Ac-R[Nle]CR[d1Nal]RWC-NH2; disulfide 3-8 (inferred))	–	–	–	–	–	–	–	–	–	67	1.6	58	6.61	0.25	11	–	–	–	–
CC(=O)N[C@@H](CCCNC(=N)N)C(=O)N[C@H]1CSSC[C@@H](C(N)=O)NC(=O)[C@@H](Cc2c[nH]c3ccccc23)NC(=O)[C@H](CCCNC(=N)N)NC(=O)[C@@H](Cc2ccc(Br)cc2)NC(=O)[C@H](CCCNC(=N)N)NC(=O)C(C)(C)NC1=O [CTX-1246, Arg-cyclo(Cys-Aib-Arg-D-Phe(4-Br)-Arg-D-Trp-Cys)] (Ac-RC[Aib]R[dPhe(4-Br)]R[dW]C-NH2; disulfide 2-8 (inferred))	–	–	–	–	21	0.27	0.56	0.57	> 4	–	–	–	–	–	–	–	–	–	–
COc1ccc(C[C@H]2NC(=O)[C@H](CCCNC(=N)N)NC(=O)[C@@H](C)NC(=O)[C@@H](NC(=O)[C@H](CCCNC(=N)N)NC(C)=O)CSSC[C@@H](C(N)=O)NC(=O)[C@@H](Cc3c[nH]c4ccccc34)NC(=O)[C@H](CCCNC(=N)N)NC2=O)cc1 [CTX-1238, Arg-cyclo(Cys-D-Ala-Arg-D-Tyr(O-Me)-Arg-D-Trp-Cys)] (Ac-RC[dA]R[dY](Me)R[dW]C-NH2; disulfide 2-8 (inferred))	0.44	0.49	79	–	21	0.47	0.53	0.59	2.87	–	–	–	–	–	–	–	–	–	–
